This note sets out measurements from US8697858B2 (priority 2009, dated 2014).

Common to all, as to assay type: in vivo, ferrets
Data set [1] relates to oseltamivir-resistant H1N1 (SOIV) pandemic influenza virus.
For data set [2] the test system is unchanged. This is another data set of the same source.
The test system is the same in data set [3]. This is another data set of the same source.
The test system is the same in data set [4]. To be noted: for Viral Titer AUC / Viral Titer: n = 8.
The mark [5] stands for this setting: Post minus Pre, Tamiflu 5 mg/kg p.o. every 12 hours.
Where [6] appears, read: Post, Tamiflu 5 mg/kg p.o. every 12 hours.
Setting [7] is: Pre, Tamiflu 5 mg/kg p.o. every 12 hours.

“And” between values parts separate entries of the source, which are not always exact repeats. Equal entries are not always repeated. Where two headings read alike, the source gives them in different places. In the oligonucleotide strings, read from the 5' end, every base follows the letter of its sugar. An asterisk marks phosphorothioate; unmarked linkages are phosphodiester. Other units and linkages are bracketed, terminal groups are in braces. A string of capitals states the bases alone. [PMO-N] = phosphorodiamidate morpholino subunit (N: the base); [pip] = piperazino phosphorodiamidate linkage (PMOplus)

For “AVI-7100: PMOplus CGGT+TAGAAGAC+TCATC+TTT, three (piperazino) phosphorodiamidate linkages ([PMO-C][PMO-G][PMO-G][PMO-T][pip][PMO-T][PMO-A][PMO-G][PMO-A][PMO-A][PMO-G][PMO-A][PMO-C][pip][PMO-T][PMO-C][PMO-A][PMO-T][PMO-C][pip][PMO-T][PMO-T][PMO-T])”, in data set [1] (in vivo), the “Clinical Scores” value was 1.00 ± 0.00 and 1.11 ± 0.21; the “symptoms of influenza virus infection” value was “significantly reduces symptoms of influenza virus infection”. Also, in data set [1] (in vivo, ip, 10 mg/kg), the “Body Weight Change Difference” value was -5.7 g/day, the “Body Weight Change Post” value worked out at 10.9 ± 1.5 g/day, the “Body Weight Change Pre” value was determined as 16.6 ± 0.8 g/day and the “Max Body Temperatures Difference” value was “+0.7 ° F”. In data set [1] (in vivo, ip, 10 mg/kg), the “Max Body Temperatures Post” value is 106.1 ° F and the “Max Body Temperatures Pre” value is reported as 105.4 ° F. Further, in data set [1] (in vivo, ip, 30 mg/kg), the “Body Weight Change Difference” value is given as “+0.8 g/day”, the “Body Weight Change Post” value was found to be 12.6 ± 2.0 g/day, the “Body Weight Change Pre” value is recorded as 11.8 ± 0.8 g/day and the “Max Body Temperatures Difference” value is reported as −0.5 ° F. Besides, in data set [1] (in vivo, ip, 30 mg/kg), the “Max Body Temperatures Post” value is on record as 104.2 ° F and the “Max Body Temperatures Pre” value is given as 104.7 ° F. Further, in data set [2] (in vivo, ip, 10 mg/kg), the “Macrophage Cellularity in Upper Respiratory Tract, Average ± Std Deviation” value is 4.34 ± 3.82 and the “Macrophage Cellularity in Upper Respiratory Tract, Day 3 Peak” value was found to be 3.88 ± 4.73. In addition, in data set [2] (in vivo, ip, 30 mg/kg), the “Macrophage Cellularity in Upper Respiratory Tract, Average ± Std Deviation” value is recorded as 2.78 ± 2.97 and the “Macrophage Cellularity in Upper Respiratory Tract, Day 3 Peak” value turned out to be 1.59 ± 1.28. Further, in data set [3] (in vivo), the “lung congestion, alveolitis, infiltrating cells” value was “no congestion in the lung, only mild alveolitis, and few infiltrating cells”. Besides, in data set [4] (in vivo), the “viral titer in nasal wash, benefit in words” value is “Significant benefit”. The “Viral Titer AUC” value in data set [4] (10 mg/kg) worked out at 5.515. In addition, the “Viral Titer AUC” value in data set [4] (30 mg/kg) is 5.675.

Regarding `CCOC(=O)C1=C[C@@H](OC(CC)CC)[C@H](NC(C)=O)[C@@H](N)C1` [Tamiflu, Oseltamivir, reference compound], in data set [1] (setting [5]), the “Body Weight Change Difference” value is -6.1 g/day. For the same molecule, the “Max Body Temperatures Difference” value in data set [1] (setting [5]) is listed as “+1.3 ° F”. For the same molecule, in data set [1] (setting [6]), the “Body Weight Change Post” value is listed as 8.5 ± 3.2 g/day. Besides, the “Max Body Temperatures Post” value in data set [1] (setting [6]) was 105.7 ° F. Moreover, the “Body Weight Change Pre” value in data set [1] (setting [7]) is listed as 15.1 ± 0.4 g/day. The “Max Body Temperatures Pre” value in data set [1] (setting [7]) is 104.4 ° F. Also, the “Clinical Scores” value in data set [1] (Tamiflu 5 mg/kg p.o. every 12 hours) worked out at 1.17 ± 0.25. Besides, in data set [2] (nasal wash, Day 3, Tamiflu 5 mg/kg p.o. every 12 hours), the “Macrophage Cellularity in Upper Respiratory Tract, Day 3 Peak” value was 7.91 ± 7.28. In addition, in data set [2] (nasal wash, Tamiflu 5 mg/kg p.o. every 12 hours), the “Macrophage Cellularity in Upper Respiratory Tract, Average ± Std Deviation” value is reported as 2.98 ± 2.71. For the same molecule, the “lung congestion, alveolitis, infiltrating cells” value in data set [3] (AVI-7100 with or without oseltamivir, oseltamivir-only) is reported as “significant congestion in the lung with marked alveolitis”. The “Viral Titer” value is reported as 2.42 ± 0.58 in data set [4] (nasal wash, Day 1, Oseltamivir 5 mg/kg p.o. every 12 hours); 0.77 ± 0.73 in data set [4] (nasal wash, Day 3, Oseltamivir 5 mg/kg p.o. every 12 hours); 0.67 ± 0.67 in data set [4] (nasal wash, Day 5, Oseltamivir 5 mg/kg p.o. every 12 hours); 0.92 ± 0.37 in data set [4] (nasal wash, Day 8, Oseltamivir 5 mg/kg p.o. every 12 hours). In data set [4] (nasal wash, Oseltamivir 5 mg/kg p.o. every 12 hours), the “Viral Titer AUC” value is reported as 7.015.
